Laboratory results published in publication PMC9865645, “The Impact of N^ε-Acryloyllysine Piperazides on the Conformational Dynamics of Transglutaminase 2” (International Journal of Molecular Sciences, 2023).

Assays:
self-produced hTGase 2 = biological target: T1, self-produced hTGase 2 (Homo sapiens, UniProt P21980); assay: native (GTP-)PAGE: conformational species of hTGase 2; conditions: pre-incubation with 500 µM GTPγS
T1 construct: thrombin cleavage site (N); made in house; host or cells: E. coli BL21(DE3)
T1 sequence (P21980 1-687): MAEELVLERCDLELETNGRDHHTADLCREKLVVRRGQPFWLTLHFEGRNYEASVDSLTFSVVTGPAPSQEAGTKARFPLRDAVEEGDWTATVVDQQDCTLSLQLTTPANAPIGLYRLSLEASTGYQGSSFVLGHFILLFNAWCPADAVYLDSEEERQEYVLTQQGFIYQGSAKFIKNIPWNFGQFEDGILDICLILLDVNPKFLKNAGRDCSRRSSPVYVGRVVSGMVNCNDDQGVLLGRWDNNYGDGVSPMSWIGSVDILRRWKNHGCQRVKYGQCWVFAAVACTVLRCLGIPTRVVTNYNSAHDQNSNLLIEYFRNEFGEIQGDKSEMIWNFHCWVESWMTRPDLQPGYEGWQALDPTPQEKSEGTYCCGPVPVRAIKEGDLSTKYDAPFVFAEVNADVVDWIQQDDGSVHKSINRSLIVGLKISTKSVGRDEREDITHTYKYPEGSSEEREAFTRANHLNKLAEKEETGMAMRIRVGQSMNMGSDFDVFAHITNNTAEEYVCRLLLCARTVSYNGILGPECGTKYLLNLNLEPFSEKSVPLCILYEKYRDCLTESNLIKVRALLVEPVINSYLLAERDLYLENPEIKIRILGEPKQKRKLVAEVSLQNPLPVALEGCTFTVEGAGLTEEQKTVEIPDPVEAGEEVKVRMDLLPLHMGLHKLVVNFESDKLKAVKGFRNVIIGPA
Method: Figure 7 Influence of inhibitors 1–3 on the activity and conformation of hTGase 2 in the absence and presence of Ca^2+ or/and GTPγS. Native (GTP-)PAGE was performed on 7% separating gels. The gel and the running buffer contained either no GTP (A) or 50 µM GTP (B). Samples of 8.23 µM self-produced hTGase 2 were incubated for 30 min at 20 °C in 100 mM MOPS pH 8.0, 100 mM NaCl, 5.33% (v/v) glycerol with CaCl2, DMSO or inhibitors 1–3 (2.12% DMSO), and GTPγS as indicated. After adding native loading buffer, 6 µL of each sample containing 3 µg of hTGase 2 was loaded onto the gel. After the electrophoretic separation, gels were stained with Coomassie Brilliant Blue G250, scanned, and the protein bands were quantified (Figure S6 in Supplementary Materials). […]
Sodium dodecyl sulfate-PAGE (SDS-PAGE) and native PAGE were performed on 4% stacking and 7% separating gels using Laemmli buffers (60 min with 120 V, 300 mA and 30 W at room temperature) and the same buffers without SDS (80 min with 120 V, 50 mA and 30 W at 4 °C), respectively. […] Afterward, the gels were scanned using a LI-COR Odyssey Fc Imager (700 channel) and analyzed using Image Studio software version 5.2.5. Detected bands were quantified based on the general procedure published by Wagstaff et al. and as detailed in legends to Figures S5 and S6. […]

commercial His6-hTGase 2 = biological target: T2, commercial His6-hTGase 2 (Homo sapiens, UniProt P21980); assay: fluorescence anisotropy (FA)-based transamidase activity assay, commercial His6-hTGase 2; format: biochemical
T2 construct: purchased Zedira (Darmstadt, Germany) T022, lot 0716a
T2 sequence (P21980 1-687): T1 sequence (P21980 1-687)
Method: For the analysis of inhibitor 1 on self-produced hTGase 2, 2 µg/mL of the enzyme was used to guarantee comparability with the value reported by Wodtke et al., whereas all other experiments were performed with 5 µg/mL of either commercial or self-produced hTGase 2 (corresponding to 64.1 and 61.6 nM, respectively, when assuming 100% active protein). Parallel and perpendicular fluorescence intensities were measured over 1190 s in 35 s intervals (1) or over 1776 s in 48 s intervals (2, 3) and used to calculate the FA. Data of FA for the first 875 s (1) or 384 s (2, 3) were analyzed by linear regression, with slopes corresponding to enzymatic rates. Rates in the presence of inhibitor were normalized by dividing them by the respective rate in the absence of inhibitor, and normalized rates were analyzed according to Equation (S29) in Supplementary Materials to calculate values of IC50. Data analysis was performed with Microsoft Excel (Microsoft Office Professional Plus 2016, Microsoft® Corporation, USA) and GraphPad Prism version 5.03 or version 6.07 for Windows (GraphPad Software, La Jolla, CA, USA).

His6-hTGase 2 = biological target: T3, His6-hTGase 2 (Homo sapiens, UniProt P21980); assay: fluorimetric activity assay (substrate Z-Glu(HMC)-Gly-OH) for kinact/KI; format: biochemical; conditions: mean (SEM) of two to four experiments
T3 construct: purchased Zedira (Darmstadt, Germany) T022, lot 0716a
T3 sequence (P21980 1-687): T1 sequence (P21980 1-687)

IC50 (commercial His6-hTGase 2; 5 min pre-incubation of enzyme and inhibitor, mean (SEM) of three experiments) [nM]	IC50 (commercial His6-hTGase 2; 30 min pre-incubation, hTGase 2 (Zedira) 64.1 nM, mean (SEM)) [nM]	ratio of the IC50 and the molar enzyme concentration (commercial His6-hTGase 2; FA assay, 30 min pre-incubation, range over in-house and commercial hTGase 2)	IC50 (commercial His6-hTGase 2; FA assay, 30 min pre-incubation, range over in-house and commercial hTGase 2 (62–64 nM)) [nM]	kinact/KI (His6-hTGase 2) [M⁻¹ s⁻¹]	Structure (SMILES)	effect on migrating hTGase 2 species (self-produced hTGase 2)
–	–	–	–	–	Nc1nc2c(ncn2[C@@H]2O[C@H](COP(=O)(O)OP(=O)(O)OP(O)(O)=S)[C@@H](O)[C@H]2O)c(=O)[nH]1 [GTPγS]	favors the fast migrating hTGase 2 species
154	47.4	0.57–0.74	35 to 47	8340	C=CC(=O)NCCCC[C@H](NC(=O)Cc1ccccc1I)C(=O)N1CCN(c2ccc([N+](=O)[O-])nc2)CC1 [Compound 2, N^α-(2-Iodophenylacetyl)-N^ε-acryloyl-L-lysin-4-(2-nitropyridin-5-yl)piperazide]	–
